# Assay results taken from patent US11439648B2, “Use of topical BRAF inhibitor compositions for treatment of radiation dermatitis” (Lutris Pharma Ltd., priority 2019, dated 2022).
# Test system: MIA PaCa2 K-ras cells
# Assay: Proliferation of MIA PaCa cells (ATPlite proliferation kit)
# Assay type: cell-based
# Settings: after 72 hours; concentration giving the highest proliferation (range 0.002 μM to 10 μM); starvation medium; average of 6 wells; presented as percent of over-proliferation vs DMSO control
# Method: In this example, effect of the compounds on proliferation of MIA PaCa2 K-ras cells was studied. It was expected that the compounds that induce ERK phosphorylation would also induce proliferation of Mia PaCa cells.
# The cells were seeded in starvation medium at 5000 cells/well in a 96 wells plate for 24 hours at 37° C., 5% CO2. The tested compounds were added at different concentrations ranging from 0.002 μM to 10 μM. The controls were untreated cells and vehicle of 0.1% DMSO. The cells were incubated at 37° C., 5% CO2, for 72 hours and then the proliferation was tested using the ATPlite proliferation kit (Perkin-Elmer). Each result represents an average of 6 wells. The results are presented as the percent of over-proliferation compared to the DMSO control.
# The concentration of the compounds that provided the highest proliferation was compared to DMSO. DMSO was calculated as 100%.
row,Structure (SMILES),% proliferation compared to the DMSO control [%]
1,Cc1ccc2c(Nc3ccc(Cl)cc3)nccc2c1Nc1ncccc1-c1ncnc2[nH]cnc12 [C-1],30
2,Cc1ccc2c(Nc3cccc(OC(F)(F)F)c3)nccc2c1Nc1ncccc1-c1ncnc2[nH]cnc12 [LUT014],116
3,CCCS(=O)(=O)Nc1ccc(F)c(C(=O)c2c[nH]c3ncc(-c4ccc(Cl)cc4)cc23)c1F [Vemurafenib],12
